Measured values taken from patent US10670605B2, “Cysteine reactive probes and uses thereof” (The Scripps Research Institute, priority 2015, dated 2020).

How the values were obtained:
Assay in all cases: Competitive isoTOP-ABPP in situ (fragment-treated cells)
Assay type in all cases: cell-based
[1] = target: cysteines in MDA-MB-231 and Ramos cells (Homo sapiens, UniProt P15121)
[2] = target: T1, cysteines in MDA-MB-231 and Ramos cells (Homo sapiens, UniProt P57764)
T1 sequence (P57764 1-484): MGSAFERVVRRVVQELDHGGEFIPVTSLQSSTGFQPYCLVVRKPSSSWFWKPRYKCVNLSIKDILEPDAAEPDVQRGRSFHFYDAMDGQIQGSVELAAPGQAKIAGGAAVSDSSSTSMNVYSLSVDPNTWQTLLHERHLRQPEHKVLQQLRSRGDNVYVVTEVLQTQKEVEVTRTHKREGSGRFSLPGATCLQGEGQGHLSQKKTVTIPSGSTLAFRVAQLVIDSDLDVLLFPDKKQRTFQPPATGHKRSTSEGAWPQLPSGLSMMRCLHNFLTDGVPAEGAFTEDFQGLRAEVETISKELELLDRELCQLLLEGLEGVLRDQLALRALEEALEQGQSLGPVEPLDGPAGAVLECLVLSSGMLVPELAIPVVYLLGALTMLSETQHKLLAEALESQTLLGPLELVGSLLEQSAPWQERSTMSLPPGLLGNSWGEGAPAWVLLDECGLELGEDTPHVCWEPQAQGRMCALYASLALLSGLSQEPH

[3] = target: cysteines in MDA-MB-231 and Ramos cells (Homo sapiens, UniProt P83731)
[4] = target: cysteines in MDA-MB-231 and Ramos cells (Homo sapiens, UniProt Q02252)
cysteines in MDA-MB-231 and Ramos cells (Homo sapiens, UniProt Q02252), sequence (Q02252 34-535): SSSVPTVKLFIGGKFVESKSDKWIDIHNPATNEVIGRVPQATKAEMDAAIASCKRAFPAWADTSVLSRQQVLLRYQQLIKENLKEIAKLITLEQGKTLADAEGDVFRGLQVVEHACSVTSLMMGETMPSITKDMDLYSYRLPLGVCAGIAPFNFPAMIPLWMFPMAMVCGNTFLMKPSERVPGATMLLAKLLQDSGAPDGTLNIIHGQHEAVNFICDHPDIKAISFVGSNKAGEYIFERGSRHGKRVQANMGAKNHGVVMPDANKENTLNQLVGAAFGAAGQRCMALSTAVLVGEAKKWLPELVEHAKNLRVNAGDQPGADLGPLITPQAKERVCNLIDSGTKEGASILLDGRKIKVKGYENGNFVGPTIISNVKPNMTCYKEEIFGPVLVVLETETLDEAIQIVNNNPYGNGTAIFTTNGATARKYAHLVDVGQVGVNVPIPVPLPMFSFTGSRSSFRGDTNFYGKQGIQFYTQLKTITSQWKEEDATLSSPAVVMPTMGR

[5] = target: T2, cysteines in MDA-MB-231 and Ramos cells (Homo sapiens, UniProt Q9BQ69)
T2 sequence (Q9BQ69 1-325): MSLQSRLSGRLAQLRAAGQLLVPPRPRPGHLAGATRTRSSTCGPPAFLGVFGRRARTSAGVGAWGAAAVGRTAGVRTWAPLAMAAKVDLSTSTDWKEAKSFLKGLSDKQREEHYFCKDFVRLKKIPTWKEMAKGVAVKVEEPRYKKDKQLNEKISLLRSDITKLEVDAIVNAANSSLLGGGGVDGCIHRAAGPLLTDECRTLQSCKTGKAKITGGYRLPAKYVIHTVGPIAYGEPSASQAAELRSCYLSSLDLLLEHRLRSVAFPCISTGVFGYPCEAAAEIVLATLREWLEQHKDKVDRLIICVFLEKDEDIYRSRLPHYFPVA

[6] = target: T3, cysteines in MDA-MB-231 and Ramos cells (Homo sapiens, UniProt Q9NVC6)
T3 sequence (Q9NVC6 1-651): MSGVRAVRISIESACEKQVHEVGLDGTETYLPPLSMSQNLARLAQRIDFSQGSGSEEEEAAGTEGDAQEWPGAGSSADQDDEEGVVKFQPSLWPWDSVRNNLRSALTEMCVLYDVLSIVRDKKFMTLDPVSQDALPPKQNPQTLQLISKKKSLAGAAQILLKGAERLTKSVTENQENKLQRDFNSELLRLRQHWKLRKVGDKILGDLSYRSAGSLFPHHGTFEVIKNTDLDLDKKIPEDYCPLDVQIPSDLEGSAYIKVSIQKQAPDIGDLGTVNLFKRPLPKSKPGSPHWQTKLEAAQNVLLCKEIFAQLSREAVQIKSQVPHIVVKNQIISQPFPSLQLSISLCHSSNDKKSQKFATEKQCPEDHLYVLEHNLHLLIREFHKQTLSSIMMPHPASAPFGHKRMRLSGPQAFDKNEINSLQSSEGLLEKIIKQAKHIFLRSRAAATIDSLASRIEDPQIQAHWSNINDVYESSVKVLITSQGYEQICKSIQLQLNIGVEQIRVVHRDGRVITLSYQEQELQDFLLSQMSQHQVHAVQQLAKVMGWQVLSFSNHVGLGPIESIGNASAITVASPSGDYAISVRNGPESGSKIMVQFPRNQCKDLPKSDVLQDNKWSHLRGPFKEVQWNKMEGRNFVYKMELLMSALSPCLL

[7] = target: cysteines in MDA-MB-231 and Ramos cells (Homo sapiens, UniProt Q9NYL2)
cysteines in MDA-MB-231 and Ramos cells (Homo sapiens, UniProt Q9NYL2), sequence (Q9NYL2 whole entry): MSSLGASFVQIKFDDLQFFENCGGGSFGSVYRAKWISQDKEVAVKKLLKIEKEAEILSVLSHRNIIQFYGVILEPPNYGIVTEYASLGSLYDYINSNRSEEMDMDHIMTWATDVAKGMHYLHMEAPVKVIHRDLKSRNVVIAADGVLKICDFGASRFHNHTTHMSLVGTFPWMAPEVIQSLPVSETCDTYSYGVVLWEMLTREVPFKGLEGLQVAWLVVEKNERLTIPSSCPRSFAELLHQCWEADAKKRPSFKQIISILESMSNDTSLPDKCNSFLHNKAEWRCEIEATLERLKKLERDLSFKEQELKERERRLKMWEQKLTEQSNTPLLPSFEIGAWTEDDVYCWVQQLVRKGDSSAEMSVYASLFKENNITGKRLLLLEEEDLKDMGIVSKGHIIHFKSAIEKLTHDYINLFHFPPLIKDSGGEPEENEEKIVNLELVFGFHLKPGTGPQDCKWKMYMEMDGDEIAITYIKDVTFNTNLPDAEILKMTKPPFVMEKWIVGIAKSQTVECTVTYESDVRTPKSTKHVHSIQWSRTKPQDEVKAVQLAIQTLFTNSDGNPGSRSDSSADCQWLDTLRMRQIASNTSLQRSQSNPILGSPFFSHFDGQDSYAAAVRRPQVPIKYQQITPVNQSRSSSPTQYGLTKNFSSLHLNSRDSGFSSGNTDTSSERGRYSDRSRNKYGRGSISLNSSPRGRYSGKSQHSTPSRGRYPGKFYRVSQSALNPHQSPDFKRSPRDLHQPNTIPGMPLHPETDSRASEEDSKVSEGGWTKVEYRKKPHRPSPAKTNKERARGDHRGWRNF

[8] = target: T4, cysteines in MDA-MB-231 and Ramos cells (Homo sapiens, UniProt Q9UKF6)
T4 sequence (Q9UKF6 1-684): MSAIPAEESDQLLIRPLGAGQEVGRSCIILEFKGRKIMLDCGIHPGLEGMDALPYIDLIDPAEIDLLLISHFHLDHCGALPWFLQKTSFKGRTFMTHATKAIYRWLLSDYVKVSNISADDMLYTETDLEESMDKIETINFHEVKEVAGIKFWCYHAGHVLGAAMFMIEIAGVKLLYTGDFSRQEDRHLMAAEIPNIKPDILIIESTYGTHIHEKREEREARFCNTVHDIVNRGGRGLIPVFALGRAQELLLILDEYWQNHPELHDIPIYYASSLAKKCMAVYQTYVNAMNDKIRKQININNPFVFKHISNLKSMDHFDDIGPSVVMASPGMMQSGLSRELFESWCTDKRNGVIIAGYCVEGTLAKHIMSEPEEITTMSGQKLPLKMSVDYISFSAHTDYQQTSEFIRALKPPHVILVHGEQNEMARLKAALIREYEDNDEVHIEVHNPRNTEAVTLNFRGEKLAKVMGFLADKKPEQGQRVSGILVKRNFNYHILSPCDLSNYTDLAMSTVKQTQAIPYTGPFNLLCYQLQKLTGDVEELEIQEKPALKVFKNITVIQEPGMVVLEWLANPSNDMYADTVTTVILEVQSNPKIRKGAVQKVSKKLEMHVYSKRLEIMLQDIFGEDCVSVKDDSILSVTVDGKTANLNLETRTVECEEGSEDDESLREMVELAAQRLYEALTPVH

[9] = target: cysteines in MDA-MB-231 and Ramos cells (Homo sapiens, UniProt Q7Z2W4)
cysteines in MDA-MB-231 and Ramos cells (Homo sapiens, UniProt Q7Z2W4), sequence (Q7Z2W4 whole entry): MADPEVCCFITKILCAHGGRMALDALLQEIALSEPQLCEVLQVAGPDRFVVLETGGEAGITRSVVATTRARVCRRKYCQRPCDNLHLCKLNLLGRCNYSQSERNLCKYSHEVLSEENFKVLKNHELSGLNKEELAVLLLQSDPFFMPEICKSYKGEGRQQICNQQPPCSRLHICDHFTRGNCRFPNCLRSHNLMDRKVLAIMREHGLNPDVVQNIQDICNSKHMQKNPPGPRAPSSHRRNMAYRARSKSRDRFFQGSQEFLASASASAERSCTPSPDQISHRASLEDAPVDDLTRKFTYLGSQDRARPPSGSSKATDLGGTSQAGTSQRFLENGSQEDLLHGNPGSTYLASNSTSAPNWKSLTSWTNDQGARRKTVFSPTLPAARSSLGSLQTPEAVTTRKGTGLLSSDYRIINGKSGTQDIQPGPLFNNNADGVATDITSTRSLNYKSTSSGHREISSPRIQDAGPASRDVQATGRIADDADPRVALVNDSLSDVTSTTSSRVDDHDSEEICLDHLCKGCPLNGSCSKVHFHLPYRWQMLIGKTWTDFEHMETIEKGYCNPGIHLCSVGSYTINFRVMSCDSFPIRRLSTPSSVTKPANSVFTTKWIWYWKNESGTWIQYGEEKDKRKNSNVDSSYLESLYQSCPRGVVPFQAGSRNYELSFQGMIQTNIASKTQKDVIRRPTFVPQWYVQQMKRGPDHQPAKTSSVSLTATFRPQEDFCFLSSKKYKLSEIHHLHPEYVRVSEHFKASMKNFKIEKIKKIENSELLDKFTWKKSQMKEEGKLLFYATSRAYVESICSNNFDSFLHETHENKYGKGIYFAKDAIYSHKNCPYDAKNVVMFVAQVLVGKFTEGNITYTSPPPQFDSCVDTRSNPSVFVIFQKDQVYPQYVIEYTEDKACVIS

COc1ccc2c(c1)CCCN2C(=O)CCl [compound 2]
isoTOP-ABPP reactivity P15121_C299 AKR1B1 ([1]; 200 μM, insitu, 231): 0.9 | isoTOP-ABPP reactivity P57764_C268 GSDMD ([2]; 200 μM, insitu, 231): 20.0 | isoTOP-ABPP reactivity P83731_C6 RPL24 ([3]; 200 μM, insitu, 231): 2.4 | isoTOP-ABPP reactivity Q02252_C317 ALDH6A1 ([4]; 200 μM, insitu, 231): 10.3 | isoTOP-ABPP reactivity Q9BQ69_C186 MACROD1 ([5]; 200 μM, insitu, 231): 4.8 | isoTOP-ABPP reactivity Q9NVC6_C649 MED17 ([6]; 200 μM, insitu, 231): 7.7 | isoTOP-ABPP reactivity Q9NYL2_C22 MUTK Mitogen-activated protein kinase MLTK ([7]; 200 μM, insitu, 231): 5.5 | isoTOP-ABPP reactivity Q9UKF6_C498 CPSF3 ([8]; 200 μM, insitu, 231): 6.2

COc1ccc(C2CC(c3cccs3)=NN2C(=O)CCl)cc1 (stereo not shown) [compound 4]
isoTOP-ABPP reactivity P15121_C299 AKR1B1 ([1]; 100 μM in situ 231): 1.0 | isoTOP-ABPP reactivity P57764_C268 GSDMD ([2]; 100 μM in situ 231): 20.0 | isoTOP-ABPP reactivity P83731_C6 RPL24 ([3]; 100 μM in situ 231): 0.7 | isoTOP-ABPP reactivity Q02252_C317 ALDH6A1 ([4]; 100 μM in situ 231): 14.4 | isoTOP-ABPP reactivity Q7Z2W4_C645 ZC3HAV1 ([9]; 100 μM in situ 231): 4.4 | isoTOP-ABPP reactivity Q9BQ69_C186 MACROD1 ([5]; 100 μM in situ 231): 1.8 | isoTOP-ABPP reactivity Q9NVC6_C649 MED17 ([6]; 100 μM in situ 231): 1.7 | isoTOP-ABPP reactivity Q9NYL2_C22 MUTK Mitogen-activated protein kinase MLTK ([7]; 100 μM in situ 231): 20.0 | isoTOP-ABPP reactivity Q9UKF6_C498 CPSF3 ([8]; 100 μM in situ 231): 3.5

COc1cc2c(cc1OC)CN(C(=O)CCl)CC2 [compound 8]
isoTOP-ABPP reactivity P15121_C299 AKR1B1 ([1]; 200 μM, insitu, 231): 1.7 | isoTOP-ABPP reactivity P57764_C268 GSDMD ([2]; 200 μM, insitu, 231): 8.4 | isoTOP-ABPP reactivity Q7Z2W4_C645 ZC3HAV1 ([9]; 200 μM, insitu, 231): 5.1 | isoTOP-ABPP reactivity Q9BQ69_C186 MACROD1 ([5]; 200 μM, insitu, 231): 5.0 | isoTOP-ABPP reactivity Q9NVC6_C649 MED17 ([6]; 200 μM, insitu, 231): 3.2 | isoTOP-ABPP reactivity Q9NYL2_C22 MUTK Mitogen-activated protein kinase MLTK ([7]; 200 μM, insitu, 231): 1.4 | isoTOP-ABPP reactivity Q9UKF6_C498 CPSF3 ([8]; 200 μM, insitu, 231): 20.0

O=C(CCl)N1CCC(Cc2ccccc2)CC1 [compound 9]
isoTOP-ABPP reactivity P15121_C299 AKR1B1 ([1]; 200 μM, insitu, 231): 1.4 | isoTOP-ABPP reactivity P83731_C6 RPL24 ([3]; 200 μM, insitu, 231): 4.3 | isoTOP-ABPP reactivity Q7Z2W4_C645 ZC3HAV1 ([9]; 200 μM, insitu, 231): 3.0 | isoTOP-ABPP reactivity Q9BQ69_C186 MACROD1 ([5]; 200 μM, insitu, 231): 1.2 | isoTOP-ABPP reactivity Q9NVC6_C649 MED17 ([6]; 200 μM, insitu, 231): 2.2 | isoTOP-ABPP reactivity Q9NYL2_C22 MUTK Mitogen-activated protein kinase MLTK ([7]; 200 μM, insitu, 231): 10.3

O=C(CCl)N1CCN(S(=O)(=O)c2ccccc2F)CC1 [compound 10]
isoTOP-ABPP ratio P15121_C299 ([1]; 200 μM, insitu, 231): 20.0 | isoTOP-ABPP ratio P57764_C268 ([2]; 200 μM, insitu, ramos): 2.2 | isoTOP-ABPP ratio P83731_C6 ([3]; 200 μM, insitu, 231): 0.4 | isoTOP-ABPP ratio P83731_C6 ([3]; 200 μM, insitu, ramos): 2.0 | isoTOP-ABPP ratio Q02252_C317 ([4]; 200 μM, insitu, 231): 1.5 | isoTOP-ABPP ratio Q02252_C317 ([4]; 200 μM, insitu, ramos): 0.7 | isoTOP-ABPP ratio Q7Z2W4_C645 ([9]; 200 μM, insitu, 231): 3.8 | isoTOP-ABPP ratio Q9BQ69_C186 ([5]; 200 μM, insitu, 231): 2.4 | isoTOP-ABPP ratio Q9NVC6_C649 ([6]; 200 μM, insitu, 231): 2.3 | isoTOP-ABPP ratio Q9NVC6_C649 ([6]; 200 μM, insitu, ramos): 2.1 | isoTOP-ABPP ratio Q9NYL2_C22 ([7]; 200 μM, insitu, 231): 1.2 | isoTOP-ABPP ratio Q9UKF6_C498 ([8]; 200 μM, insitu, 231): 20.0 | isoTOP-ABPP ratio Q9UKF6_C498 ([8]; 200 μM, insitu, ramos): 2.8

Cn1cc(S(=O)(=O)N2CCOCC2)cc1C(=O)NC(=O)CCl [compound 11]
isoTOP-ABPP ratio P15121_C299 ([1]; 100 μM in situ 231): 0.7 | isoTOP-ABPP ratio P57764_C268 ([2]; 100 μM in situ 231): 0.7 | isoTOP-ABPP ratio P83731_C6 ([3]; 100 μM in situ 231): 0.5 | isoTOP-ABPP ratio Q02252_C317 ([4]; 100 μM in situ 231): 0.9 | isoTOP-ABPP ratio Q7Z2W4_C645 ([9]; 100 μM in situ 231): 1.0 | isoTOP-ABPP ratio Q9BQ69_C186 ([5]; 100 μM in situ 231): 1.0 | isoTOP-ABPP ratio Q9NVC6_C649 ([6]; 100 μM in situ 231): 0.8 | isoTOP-ABPP ratio Q9NYL2_C22 ([7]; 100 μM in situ 231): 0.7 | isoTOP-ABPP ratio Q9UKF6_C498 ([8]; 100 μM in situ 231): 1.3
